Read-outs that look alike come from different tables or passages of the source.
Tested on: human U87 glioma tumor
Assay: In vivo anti tumour effects, U87 glioma xenograft
Conditions: U87 xenograft in NMRI Nude mice, 20 mg/kg p.o. QD for 5 days; for response vs control in vivo at 20 mg/kg: Mus musculus, U-87 MG, po
Method: Immuno-deficient (athymic) male NMRI Nude (Nu/Nu) mice (20-25 g obtained from Janvier, France) were used for these studies. Initial weight was approximately […]. All animals were maintained under SPF “full barrier” conditions with free access to food and water. Mice were group housed under a 12-h light:dark cycle (lights on at 06:00 h) at a temperature of 19 to 22° C. and 35 to 40% humidity in Techniplast type-3 IVC cages. Mice were fed a standard Laboratory chow. All experiments were carried out in accordance with the European Communities Council Directives (86/609/EEC) and had to be approved by the local ethical committee. For an established tumor xenograft model (tumor volume ˜200 mm^3), mice were randomized according to tumor volumes, with 5 mice per treatment group.
The human U87 glioma tumor cell line was derived from a patient. Cells were cultured at 37° C. in a humidified atmosphere (5% CO2, 95% air), in DMEM medium supplemented with 2 mM L-glutamine, 2.0 mM sodium pyruvate, 25 units/ml penicillin/25 μg/ml streptomycin and 10% fetal bovine serum. Cells were maintained as cell monolayer cultures, being passaged twice weekly at 3×10^6 cells per T175 flask using the following procedure. Briefly cells were washed with PBS (without Mg^2+, Ca^2+), before addition of trypsin-EDTA to the culture flasks. After detachment of cells the trypsin-EDTA was inactivated by addition of complete medium. Cell suspension was then transferred to 50 ml Falcon tube and centrifuged for 3 min at 1200 rpm. Medium was aspirated, with the cells being re-suspended in an appropriate volume of complete medium. The cells were counted in a haemocytometer and their viability was assessed by 0.25% trypan blue exclusion. An appropriate volume of cell suspension was then added to either a new T175 culture flask(s) or roller bottle containing fresh medium. For large scale-up growth of U87 tumor cells, an appropriate number of roller bottles were seeded with 0.5 to 1×10^7 cells 1 week prior to inoculation of mice. The medium was changed twice during this period, with the last change being the day prior to cell injection. Cells were collected as described above, with the exception that after centrifugation, the cells were re-suspended in cold (4° C.) serum-free medium. Mice were injected in the inguinal region with 1×10^7 cells total in a 200 μl volume.
Human U87 glioma cells were injected directly into the inguinal region of the male NMRI Nude mice (1×10^7 cells/200 μl/animal) on day 0 (D0). On day 7-10 (can vary due to tumor take/growth between cell batches) when tumor volume had reached an approximate average of 200 mm^3, mice were randomized according to tumor volume, with 5 mice per treatment group. Mice were then treated once daily (QD) with either vehicle (10% HP-β-CD) or vehicle containing test compound (20 mg/kg) by gavage (p.o.) administered in a volume of 10 ml/kg body weight for 5 days. Specific tumor measurements were taken on day 6 (24 hours post 5th dose) and then again on day 10. Tumor re-growth (after dosing has stopped) was monitored so that the time-to-reach a volume of 2000 mm^3 (TTR2000) can be recorded. This gives extra information on the duration of drug action on the tumor growth. In general, tumor size and body weights were measured twice weekly, with mice monitored daily for clinical signs of toxicity for the duration of the treatment. Clinical signs of toxicity included (but not limited to), persistent anorexia or dehydration, posture, moribund, lethargy, hypothermia and/or laboured respiration (according to the UKCCCR guidelines for welfare of animals in experimental neoplasia (The UKCCCR (UK Coordinating Committee on Cancer Research) guidelines for the welfare of animals in experimental neoplasia (July 1997); and Workman, P. et al. UKCCCR guideline. Br. J. Cancer. 1998, 77: 1-10). […]

[1] = day 6 after start dosing, 20 mg/kg
[2] = day 10 after start dosing, 20 mg/kg
[3] = 144 h, day 6 after start dosing, read-out: % T/C day 6
[4] = 240 h, day 10 after start dosing, read-out: % T/C day 10

Cc1cc(Nc2ccnc3c2CCC3O)ccc1NCCc1c[nH]c2c(C(C)O)cccc12 (single isomer, unassigned) [Compound 12]
% T/C day 6 [1]: 64%
% T/C day 10 [2]: 71%

Cc1cc(Nc2ccnc3c2CCC3O)ccc1NCCc1c[nH]c2c(C(C)O)cccc12 (single isomer, unassigned) [Compound 15]
% T/C day 6 [1]: 53%
% T/C day 10 [2]: 88%

Cc1cc(Nc2ccnc3c2CCC3O)ccc1NCCc1c[nH]c2c(CCO)cccc12 (single isomer, unassigned) [Compound 23]
% T/C day 6 (day 6 after start dosing): 72%
% T/C day 10 (day 10 after start dosing): 95%

COC1CCc2c(Nc3ccc(NCCc4c[nH]c5c(C(C)(C)O)cccc45)cc3)ccnc21 (single isomer, unassigned) [Compound 24]
% T/C day 6 [1]: 60%
% T/C day 10 [2]: 1%

COC1CCc2c(Nc3ccc(NCCc4c[nH]c5c(C(C)(C)O)cccc45)cc3)ccnc21 (single isomer, unassigned) [Compound 25]
% T/C day 6 [1]: 330%
% T/C day 10 [2]: −3%

Cc1cc(Nc2ccnc3c2CCC3(C)O)ccc1NCCc1c[nH]c2c(C(C)(C)O)cccc12 (single isomer, unassigned) [Compound 26]
% T/C day 6 [1]: 354%
% T/C day 10 [2]: −11%

Cc1cc(Nc2ccnc3c2CCC3(C)O)ccc1NCCc1c[nH]c2c(C(C)(C)O)cccc12 (single isomer, unassigned) [Compound 27]
% T/C day 6 [1]: 193%
% T/C day 10 [2]: 22%

COC1CCc2c(Nc3ccc(NCCc4c[nH]c5c(C(C)(C)O)cccc45)c(C)c3)ccnc21 (single isomer, unassigned) [Compound 28]
% T/C day 6 [1]: −280%
% T/C day 10 [2]: −10%

COC1CCc2c(Nc3ccc(NCCc4c[nH]c5c(C(C)(C)O)cccc45)c(C)c3)ccnc21 (single isomer, unassigned) [Compound 29]
% T/C day 6 [1]: −196%
% T/C day 10 [2]: −13%

CC(C)(O)c1cccc2c(CCNc3ccc(Nc4ccnc5c4CCC5(C)O)cc3)c[nH]c12 (single isomer, unassigned) [Compound 30]
% T/C day 6 [1]: −61%
% T/C day 10 [2]: −10%

CC(C)(O)c1cccc2c(CCNc3ccc(Nc4ccnc5c4CCC5(C)O)cc3)c[nH]c12 (single isomer, unassigned) [Compound 31]
% T/C day 6 [1]: 179%
% T/C day 10 [2]: 1%

Cc1cc(Nc2ccnc3c2CCC3(C)O)ccc1NCCc1c[nH]c2c(C(C)(C)O)cccc12 (stereo not shown) [Compound 1]
response vs control in vivo at 20 mg/kg [3]: 17%
response vs control in vivo at 20 mg/kg [4]: 8%

Cc1cc(Nc2ccncc2)ccc1NCCc1c[nH]c2c(C(C)(C)O)cccc12 [Compound 2]
response vs control in vivo at 20 mg/kg [3]: 14%
response vs control in vivo at 20 mg/kg [4]: -0.23%

Cc1cc(Nc2ccnc3c2CCC3=O)ccc1NCCc1c[nH]c2c(C(C)O)cccc12 (stereo not shown) [Compound 4]
response vs control in vivo at 20 mg/kg [3]: 77%
response vs control in vivo at 20 mg/kg [4]: 129%

Cc1cc(Nc2ccnc(CO)c2)ccc1NCCc1c[nH]c2c(C(C)O)cccc12 (stereo not shown) [Compound 5]
response vs control in vivo at 20 mg/kg [3]: 103%
response vs control in vivo at 20 mg/kg [4]: 67%

OCc1cccc2c(CCNc3ccc(Nc4ccnc5c4CCC5O)cc3)c[nH]c12 (stereo not shown) [Compound 6]
response vs control in vivo at 20 mg/kg [3]: 105%
response vs control in vivo at 20 mg/kg [4]: 99%

Cc1cc(Nc2ccnc3c2CCC3O)ccc1NCCc1c[nH]c2c(CCC(C)O)cccc12 (stereo not shown) [Compound 9]
response vs control in vivo at 20 mg/kg [3]: 145%
response vs control in vivo at 20 mg/kg [4]: 113%

Cc1cc(Nc2ccnc3c2CCC3(C)O)ccc1NCCc1c[nH]c2c(C(C)O)cccc12 (stereo not shown) [Compound 10]
% T/C day 6 (day 6 after start dosing): 96%
% T/C day 10 (day 10 after start dosing): 71%

COc1cc(Nc2ccnc3c2CCC3O)ccc1NCCc1c[nH]c2c(C(C)(C)O)cccc12 (stereo not shown) [Compound 11]
% T/C day 6 (day 6 after start dosing): 72%
% T/C day 10 (day 10 after start dosing): 79%

COC1CCc2c(Nc3ccc(NCCc4c[nH]c5c(C(C)O)cccc45)c(C)c3)ccnc21 (stereo not shown) [Compound 16]
% T/C day 6 (day 6 after start dosing): 63%
% T/C day 10 (day 10 after start dosing): 64%

Cc1cc(Nc2ccnc3c2CCC3O)ccc1NCCc1c[nH]c2c(C(C)(C)O)cccc12 (stereo not shown) [Compound 18]
response vs control in vivo at 20 mg/kg [3]: 9%
response vs control in vivo at 20 mg/kg [4]: -3%

Cc1cc(Nc2ccnc(CO)c2)ccc1NCCc1c[nH]c2c(C(C)(C)O)cccc12 [Compound 19]
% T/C day 6 (day 6 after start dosing): 57%
% T/C day 10 (day 10 after start dosing): 40%

Cc1cc(Nc2ccncc2)ccc1NCCc1c[nH]c2c(C(O)C(C)C)cccc12 (stereo not shown) [Compound 22]
% T/C day 6 (day 6 after start dosing): 40%
% T/C day 10 (day 10 after start dosing): 55%

From patent US8541442B2, “Indole derivatives as anticancer agents” (Janssen Pharmaceutica N.V., priority 2009, dated 2013)
